Measurements published in patent US20140066449A1, “DIPYRIDINIUM DERIVATIVES” (SABREPHARM LIMITED, priority 2011, published 2014).
Where two headings read alike, the source gives them in different places.

Experiments:
[1] = test system: H460 non-small cell lung adenocarcinoma; experiment: MTT in vitro cytotoxicity, H460; type: cell-based; conditions: Homo sapiens, NCI-H460, 240 h
Protocol: (§1) All were stored in the dark at 4° C. An accurately weighed amount of each compound was dissolved in DMSO and Hank's Balanced Salt Solution (Sigma) according to Table 2 below:
(§2) Further dilutions were made in complete RPMI1640 cell culture medium (RPMI1640 cell culture medium supplemented with 10% foetal bovine serum, 1 mM L-glutamine, and 2 mM sodium pyruvate (all from Sigma)).
(§3) H460 non-small cell lung adenocarcinoma, HT-29 colon adenocarcinoma and MCF-7 breast adenocarcinoma (ECACC, Salisbury, Wiltshire) were used for analysis. Cells were cultured in complete RPMI1640 cell culture medium, and maintained as monolayer cultures at 37° C. in a humidified 5% CO2 environment.
(§4) Tumour cell growth inhibition was assessed using the MTT assay with a standard 96 hour plus an extended 10 day incubation. For the 96 hour assay 1×10^4 cells were inoculated into each well of a 96-well plate and incubated overnight at 37° C. in a humidified atmosphere containing 5% CO2 to give time to adhere to the wells and form a monolayer. For the 10 day incubation, 1×102 (H460 and HT-29) and 1×103 (MCF-7) cells were inoculated. The next day, culture medium was removed from each well and replaced with cell culture media for the untreated control, or media containing compound, and the plates then incubated for a further 96 hours or 10 days. […] After 96 hours or 10 days culture medium was removed and 200 μL of 0.5 mgmL-1 MTT solution (Sigma) in complete medium added to each well. Following a further 4 hours incubation, the solution was removed from each well and 150 μL of DMSO added to solubilise the formazan crystals resulting from MTT conversion. Absorbance values for the resulting solutions were read at 550 nm on a Multiskan Ex microplate reader (Thermo Fisher, Loughborough, UK) and cell survival calculated as the absorbance of treated cells divided by the control. Results are expressed in terms of IC50 values (i.e. concentration of compound required to kill 50% of cells), which were determined manually in Microsoft Excel from plots of concentration versus percentage cell survival, and all experiments were performed in triplicate.

[2] = test system: HT-29 colon adenocarcinoma; experiment: MTT in vitro cytotoxicity, HT-29; type: cell-based; conditions: Homo sapiens, HT-29, 240 h
Protocol: as §1, §2, §3, §4

[3] = test system: MCF-7 breast adenocarcinoma; experiment: MTT in vitro cytotoxicity, MCF-7; type: cell-based, human; conditions: Homo sapiens, MCF7, 240 h
Protocol: as §1, §2, §3, §4

A2780 [ovarian] = experiment: Combination with cisplatin, A2780; type: cell-based
[4] = test system: A2780/cis [cisplatin ovarian resistant line]; experiment: Combination with cisplatin, A2780/cis; type: cell-based
M 14 [melanoma] = experiment: Combination with cisplatin, M14; type: cell-based
MCF7 [Breast] = experiment: Combination with cisplatin, MCF-7; type: cell-based, human
[5] = test system: human mitochondria isolated from HEK293 cells; experiment: ROS production in isolated mitochondria (DCFDA); type: biochemical
Protocol: The ability of test compounds to impact ROS production in isolated mitochondria after 120 mins exposure was assessed.
Mitochondria were isolated from harvested human embryonic kidney (HEK293) cells (20×10^6) using a commercial kit (Thermo Scientific) before re-suspension in PBS to a final volume of 800 μL. […] Independent experiments (each assessing the impact of all four compounds along with a positive [AAPH; 5.0 mM] and vehicle control) were repeated three times.

[6] = Redox potential study, square wave voltammetry; type: physicochemical; conditions: 0.1 mol dm-3 LiNTf2, 20° C., first scan
Protocol: BioAnalytical Systems CV50W potentiostat (from BAS Inc., USA)
Square wave voltammetry (4 mV step, 25 mV pulse, 10 Hz SW frequency)
3 mm diameter glassy carbon working electrode (from BAS)
3 mm diameter glassy carbon counter electrode (from BAS)
Saturated calomel reference electrode (SCE, from Sycopel Scientific Ltd., UK)
0.1 mol dm-3 lithium bis(trifluoromethanesulphonyl)imide ((LiNTf2)CAS 90076-65-6, from 3M)
Voltammograms were recorded from 0.5 V to −1.2 V in deoxygenated solutions of the Compounds.

[7] = compound 1 μM + cisplatin 10 μM
[8] = compound 3 μM + cisplatin 10 μM
[9] = compound 10 μM + cisplatin 1 μM
[10] = compound 10 μM + cisplatin 3 μM
[11] = compound 10 μM + cisplatin 10 μM

O=S(=O)([O-])C(F)(F)F.O=S(=O)([O-])C(F)(F)F.c1cc[n+]2c(c1)-c1cccc[n+]1CC2 [Compound A, 6,7-dihydrodipyrido[1,2-a:2′,1′-c]pyrazine-5,8-diium bistrifluoromethanesulfonate]
IC50 ([1]; read-out: IC50 Mean): 5.4 µM | IC50 ([1]; read-out: IC50 Run 1): 5.2 µM | IC50 ([1]; read-out: IC50 Run 2): 5.5 µM | IC50 ([1]; read-out: IC50 Run 3): 5.4 µM | IC50 ([2]; read-out: IC50 Mean): 1.5 µM | IC50 ([2]; read-out: IC50 Run 1): 1.8 µM | IC50 ([2]; read-out: IC50 Run 2): 0.9 µM | IC50 ([2]; read-out: IC50 Run 3): 1.7 µM | IC50 ([3]; read-out: IC50 Mean): 5 µM | IC50 ([3]; read-out: IC50 Run 1): 2.7 µM | IC50 ([3]; read-out: IC50 Run 2): 5.4 µM | IC50 ([3]; read-out: IC50 Run 3): 6.8 µM | % cell survival (A2780 [ovarian]; compound 1 μM + cisplatin 1 μM): 58% | % cell survival (A2780 [ovarian]; compound 1 μM + cisplatin 3 μM): 24.5% | % cell survival (A2780 [ovarian]; [7]): 5.2% | % cell survival (A2780 [ovarian]; compound 1 μM, cisplatin 0 μM): 90.5% | % cell survival (A2780 [ovarian]; compound 3 μM + cisplatin 1 μM): 54.4% | % cell survival (A2780 [ovarian]; compound 3 μM + cisplatin 3 μM): 22.3% | % cell survival (A2780 [ovarian]; [8]): 5.3% | % cell survival (A2780 [ovarian]; compound 3 μM, cisplatin 0 μM): 86.3% | % cell survival (A2780 [ovarian]; [9]): 40.6% | % cell survival (A2780 [ovarian]; [10]): 19% | % cell survival (A2780 [ovarian]; [11]): 5.2% | % cell survival (A2780 [ovarian]; compound 10 μM, cisplatin 0 μM): 66% | % cell survival [4, 7]: 51.4% | % cell survival ([4]; compound 1 μM + cisplatin 30 μM): 10% | % cell survival ([4]; compound 1 μM + cisplatin 100 μM): −1.6% | % cell survival ([4]; compound 1 μM, cisplatin 0 μM): 77.8% | % cell survival [4, 8]: 31.9% | % cell survival ([4]; compound 3 μM + cisplatin 30 μM): 10.2% | % cell survival ([4]; compound 3 μM + cisplatin 100 μM): 1.9% | % cell survival ([4]; compound 3 μM, cisplatin 0 μM): 48.7% | % cell survival [4, 11]: 16.6% | % cell survival ([4]; compound 10 μM + cisplatin 30 μM): 6% | % cell survival ([4]; compound 10 μM + cisplatin 100 μM): 1.8% | % cell survival ([4]; compound 10 μM, cisplatin 0 μM): 29.4% | % cell survival (M 14 [melanoma]; compound 1 μM + cisplatin 1 μM): 83.1% | % cell survival (M 14 [melanoma]; compound 1 μM + cisplatin 3 μM): 71.3% | % cell survival (M 14 [melanoma]; [7]): 57.9% | % cell survival (M 14 [melanoma]; compound 1 μM, cisplatin 0 μM): 87% | % cell survival (M 14 [melanoma]; compound 3 μM + cisplatin 1 μM): 75.8% | % cell survival (M 14 [melanoma]; compound 3 μM + cisplatin 3 μM): 68% | % cell survival (M 14 [melanoma]; [8]): 55.4% | % cell survival (M 14 [melanoma]; compound 3 μM, cisplatin 0 μM): 80% | % cell survival (M 14 [melanoma]; [9]): 49% | % cell survival (M 14 [melanoma]; [10]): 44.4% | % cell survival (M 14 [melanoma]; [11]): 36.4% | % cell survival (M 14 [melanoma]; compound 10 μM, cisplatin 0 μM): 56.5% | % cell survival (MCF7 [Breast]; compound 1 μM + cisplatin 0.1 μM): 96.4% | % cell survival (MCF7 [Breast]; compound 1 μM + cisplatin 0.3 μM): 69.4% | % cell survival (MCF7 [Breast]; compound 1 μM + cisplatin 1 μM): 62% | % cell survival (MCF7 [Breast]; compound 1 μM, cisplatin 0 μM): 109% | % cell survival (MCF7 [Breast]; compound 3 μM + cisplatin 0.1 μM): 80.9% | % cell survival (MCF7 [Breast]; compound 3 μM + cisplatin 0.3 μM): 64.8% | % cell survival (MCF7 [Breast]; compound 3 μM + cisplatin 1 μM): 66.2% | % cell survival (MCF7 [Breast]; compound 3 μM, cisplatin 0 μM): 95.1% | % cell survival (MCF7 [Breast]; compound 10 μM + cisplatin 0.1 μM): 52.8% | % cell survival (MCF7 [Breast]; compound 10 μM + cisplatin 0.3 μM): 39.6% | % cell survival (MCF7 [Breast]; [9]): 32.6% | % cell survival (MCF7 [Breast]; compound 10 μM, cisplatin 0 μM): 52.6% | ROS production relative to vehicle treatment [5]: barely above vehicle levels | rank order of efficacy (ROS production) [5]: F>G>B>A | Reduction potential 1 [6]: −0.444 V vs. SCE | Reduction potential 2 [6]: −0.944 V vs. SCE
